Results from patent US20110263677A1, “GOS2 MODULATORS IN THE TREATMENT OF ACNE, OF SEBORRHOEIC DERMATITIS OR OF HYPERSEBORRHOEA” (Galderma Research & Development, priority 2008, published 2011).

Assays:
HPRT1 (standardizer 1) = experiment: Real-time PCR gene expression in rat epidermal split containing sebaceous glands after topical treatment: HPRT1; format: in vivo; details: topical administration, 0.3% in acetone, 96 hours
Procedure: (§1) Strain: OFA-SD (SPF Caw),
(§2) Number per batch: 40 (8 animals per group) Treatment: Route of administration: topical
(§3) Compound/batch: PPARgamma agonist (rosiglitazone)
(§4) Method of evaluation: The animals are weighed at the beginning and at the end of the study. Skin biopsies are taken (6 samples of skin excised per rat) in order to analyse the expression of the genes (RNA extraction, reverse transcriptase and real-time PCR). The samples are stored overnight at 4° C. before incubation in 1M sodium bromide (NaBr) for 2 hours at 37° C. After incubation, the samples are separated into epidermis or dermis. The epidermal samples are stored at […]. Under these conditions, the sebaceous glands are in the epidermal split. PCRs are carried out, beginning with the cDNAs originating from the epidermal splits containing sebaceous glands from control rats or rats treated with the PPARγ agonist: the mRNA is extracted using a column and quantified. The quality of mRNAs is measured and is represented by the 18S/28S ratio. The results are standardized with respect to 18S, expressed as relative induction versus untreated animals (carrier group). The statistical analysis is obtained using internal software based on a modified Monte Carlo statistical analysis.

ACTB (standardizer 2) = experiment: Real-time PCR gene expression in rat epidermal split containing sebaceous glands after topical treatment: ACTB; format: in vivo; details: topical administration, 0.3% in acetone, 96 hours
Procedure: as §1, §2, §3, §4

PPARG (reference gene) = experiment: Real-time PCR gene expression in rat epidermal split containing sebaceous glands after topical treatment: PPARG; format: in vivo; details: topical administration, 0.3% in acetone, 96 hours
Procedure: as §1, §2, §3, §4

PPARG = experiment: as above; format: in vivo; details: topical administration, 0.3% in acetone, 96 hours, versus carrier group
Procedure: as §1, §2, §3, §4

GOS2 [1] = experiment: Real-time PCR gene expression in rat epidermal split containing sebaceous glands after topical treatment: GOS2; format: in vivo; details: topical administration, 0.3% in acetone, 96 hours
Procedure: as §1, §2, §3, §4

GOS2 [2] = details: mouse liver; Zandbergen et al., 2005; cited from earlier work

## COCCOCOc1ccc2cc(C(=O)N(C)Cc3cccc(-c4ccc(CC5SC(=O)NC5=O)cc4)c3)ccc2c1 (stereo not drawn) [PPARgamma agonist, 6-(2-methoxyethoxy-methoxy)naphthalene-2-carboxylic acid [4′-(2,4-dioxothiazolidin-5-ylmethyl)biphenyl-3-ylmethyl]methylamide]
HPRT1 (standardizer 1)
  Variation versus carrier after standardization (ΔΔCt): −0.07
HPRT1 (standardizer 1); versus carrier group
  Relative induction: −1.05
ACTB (standardizer 2)
  Variation versus carrier after standardization (ΔΔCt): 0.23
ACTB (standardizer 2); versus carrier group
  Relative induction: 1.18
PPARG (reference gene)
  Variation versus carrier after standardization (ΔΔCt): 0.72
PPARG
  Relative induction: 1.65
GOS2 [1]
  Variation versus carrier after standardization (ΔΔCt): 2.36
GOS2 [1]; versus carrier group
  Relative induction: 5.24

## Cc1cccc(Nc2cc(Cl)nc(SCC(=O)O)n2)c1C [Wy14643]
GOS2 [2]
  expression of GOS2 (marker for PPARalpha): induced
